“Also recorded” adds a separate entry of the source.
Test system: male Wistar rats
Assay: MK-801-induced persistent latent inhibition (LI), thirst motivated conditioned emotional response procedure
Format: in vivo, rat
Description: Latent inhibition (“LI”) is the process whereby pre-exposure to a stimulus retards conditioning to this stimulus when it is subsequently paired with reinforcement, and it has been used extensively to model cognitive impairments in schizophrenia. […] Briefly, amphetamine disrupts LI in rats and normal humans, and this is paralleled by disrupted LI in acute schizophrenia patients. Amphetamine-induced LI disruption is reversed by both typical and atypical APDs.
The rats used were male Wistar rats approximately five months old, weighing 350 g to 500 g.
Rats were tested in Campden Instruments rodent test chambers with a retractable bottle. When the bottle was not present, the hole was covered by a metal lid. Licks were detected by a Campden Instruments drinkometer. The preexposed to-be-conditioned stimulus was a 10 sec, 80 dB, 2.8 kHz tone produced by a Sonalert module. Shock was supplied through the floor by a Campden Instruments shock generator and shock scrambler set at 0.5 mA and 1 sec duration. Equipment programming and data recording were computer controlled.
LI was measured in a thirst motivated conditioned emotional response (“CER”) procedure by comparing the suppression of drinking to a tone previously paired with a foot shock in rats that received non-reinforced exposure to the tone prior to conditioning (preexposed) and in rats for whom the tone was novel (non-preexposed).
Prior to the beginning of each LI experiment, rats were handled for about 2 min daily for 8 days. On day 9, a 23 h water restriction schedule was initiated and continued throughout the experiment. After 5 days of deprivation (days 9-13), rats were trained to drink in the experimental chambers for the next 5 days (days 14-18), for 20 min during the 1st day and for 15 min per day during each of the next 4 days. Water in the test apparatus was given in addition to the daily ration of 1 h given in the home cages. The LI procedure was conducted on days 19-22 and consisted of the following stages:
With the bottle removed, the preexposed (“PE”) rats received 40 tone presentations with an inter-stimulus interval of 50 sec. The nonpreexposed (“NPE”) rats were confined to the chamber for an identical period of time without receiving the tone.
With the bottle removed, each rat received 5 tone-shock pairings given 5 min apart. Shock immediately followed tone termination. The first tone-shock pairing was given 5 min after the start of the session. After the last pairing, rats were left in the experimental chamber for an additional 5 min. […]
Each rat was placed in the chamber and allowed to drink from the bottle. […] The following times were recorded: Time to first lick, time to complete licks 1-50, time to complete licks 51-75 (before tone onset) and time to complete licks 76-100 (after tone onset). […]

C[C@]12N[C@H](Cc3ccccc31)c1ccccc12 [MK-801, dizocilpine, reference compound]
LI (difference between preexposed and nonpreexposed groups in log times to complete licks 76-100) (MK-801 0.05 mg/kg i.p. 30 min before conditioning, vehicle pretreatment, 40 preexposures, 5 conditioning trials): significant difference between the preexposed and nonpreexposed groups, namely, LI; also recorded: persisted in showing LI

R(+)-6-(N-methyl, N-ethyl-carbamoyloxy)-N′-propargyl-1-aminoindan ½ tartrate [ladostigil tartrate]
LI / reversal of abnormally persistent LI in MK-801-treated rats (25 mg/kg ladostigil tartrate p.o. chronic + MK-801 0.05 mg/kg i.p.): reversed abnormally persistent LI
LI (difference between preexposed and nonpreexposed groups in log times to complete licks 76-100) (37.5 mg/kg ladostigil tartrate p.o. chronic + MK-801 0.05 mg/kg i.p.): significant difference between the preexposed and nonpreexposed groups, namely, LI
Effect on LI of drug on its own (ladostigil tartrate 25 mg/kg and 37.5 mg/kg p.o. chronic + saline (no MK-801)): had no effect
